Consider 3 molecules from patent US11980632B2 (priority 2020, dated 2024).

The experiment deals with corona-pseudovirus. Type of experiment: cell-based, SARS-CoV-2.
`CN(C)C(=O)COC(=O)Cc1ccc(OC(=O)c2ccc(NC(=N)N)cc2)cc1` [Camostat]: the “infection with the corona-pseudovirus (degree of infection depending on drug concentration)” value (“infection with the corona-pseudovirus” below) is “inhibited in a concentration-dependent manner”.

With `CCN(CCO)CCCC(C)Nc1ccnc2cc(Cl)ccc12` (stereo not drawn) [hydroxychloroquinine], the “infection with the corona-pseudovirus” value was “inhibited in a concentration-dependent manner”.

For the molecule heparin, the “infection with the corona-pseudovirus” value was “inhibited in a concentration-dependent manner”.
